According to patent publication US20260234135A1, “CRYSTALLINE FORMS OR SALTS OF A DEUTERATED COMPOUND” (ALEBUND PHARMACEUTICALS (HONG KONG) LIMITED, priority 2023, published 2026):
Read-outs that look alike come from different tables or passages of the source.

Experiments:
[1] = Hygroscopicity evaluation by DVS at 25° C.; type: physicochemical; conditions: for Water uptake up to 80% RH: DVS, 25° C.; for Form change after DVS test: XRPD after DVS
Method: DVS was measured via a SMS (Surface Measurement Systems) DVS Intrinsic. The relative humidity at 25° C. were calibrated against deliquescence point of LiCl, Mg(NO3)2 and KCl.

Q: Which “Area (%) of impurity peak RRT 1.34” value (40° C./75% RH, 2 weeks) does the source give for [2H]C([2H])(Cc1nc(-c2ccccc2)oc1C)Oc1ccc(C[C@H](OC)C(=O)[O-])c2sccc12.[K+] [K salt Form C] here?
A: 0.24%

Q: And the “Area (%) of impurity peak RRT 1.34” value (40° C./75% RH, 4 weeks)?
A: 0.25%

Q: And the “Area (%) of impurity peak RRT 1.34” value (40° C./75% RH, 8 weeks)?
A: 0.25%

Q: What about the “HPLC Purity (area %), main peak RRT 1.00” value (40° C./75% RH/open, 2 weeks) of the same molecule?
A: 99.76 area %

Q: What about the “HPLC Reults of initial (%)” value (40° C./75% RH/open, 2 weeks) of the same molecule?
A: 100.01%

Q: What about the “HPLC Purity (area %), main peak RRT 1.00” value (40° C./75% RH/open, 4 weeks) of the same molecule?
A: 99.75 area %

Q: And the “HPLC Reults of initial (%)” value (40° C./75% RH/open, 4 weeks)?
A: 100.00%

Q: And the “HPLC Purity (area %), main peak RRT 1.00” value (40° C./75% RH/open, 8 weeks)?
A: 99.75 area %

Q: And the “HPLC Reults of initial (%)” value (40° C./75% RH/open, 8 weeks)?
A: 100.00%

Q: What about the “Area (%) of impurity peak RRT 0.88” value (60° C., 2 weeks) of the same molecule?
A: 0.10%

Q: And the “Area (%) of impurity peak RRT 1.14” value (60° C., 2 weeks)?
A: 0.07%

Q: And the “Area (%) of impurity peak RRT 1.34” value (60° C., 2 weeks)?
A: 0.26%

Q: What about the “Area (%) of impurity peak RRT 0.88” value (60° C., 4 weeks) of the same molecule?
A: 0.08%

Q: And the “Area (%) of impurity peak RRT 1.14” value (60° C., 4 weeks)?
A: 0.04%

Q: What about the “Area (%) of impurity peak RRT 1.34” value (60° C., 4 weeks) of the same molecule?
A: 0.24%

Q: What about the “Area (%) of impurity peak RRT 0.88” value (60° C., 8 weeks) of the same molecule?
A: 0.09%

Q: And the “Area (%) of impurity peak RRT 1.34” value (60° C., 8 weeks)?
A: 0.24%

Q: And the “Form or purity change after storage” value (60° C./close and 40° C./75% RH/open for 2/4/8 weeks)?
A: No purity decrease but form change

Q: And the “HPLC Purity (area %), main peak RRT 1.00” value (60° C./close, 2 weeks)?
A: 99.57 area %

Q: And the “HPLC Reults of initial (%)” value (60° C./close, 2 weeks)?
A: 99.82%

Q: What about the “HPLC Purity (area %), main peak RRT 1.00” value (60° C./close, 4 weeks) of the same molecule?
A: 99.64 area %

Q: And the “HPLC Reults of initial (%)” value (60° C./close, 4 weeks)?
A: 99.89%

Q: And the “HPLC Purity (area %), main peak RRT 1.00” value (60° C./close, 8 weeks)?
A: 99.67 area %

Q: What about the “HPLC Reults of initial (%)” value (60° C./close, 8 weeks) of the same molecule?
A: 99.92%

Q: And the “Area (%) of impurity peak RRT 1.34” value (Initial)?
A: 0.25%

Q: What about the “HPLC Purity (area %), main peak RRT 1.00” value (Initial) of the same molecule?
A: 99.75 area %

Q: What about the “Water uptake up to 80% RH” value [1] of the same molecule?
A: 12.0%

Q: What about the “Form change after DVS test” value [1] of the same molecule?
A: form change was observed

Q: For [2H]C([2H])(Cc1nc(-c2ccccc2)oc1C)Oc1ccc(C[C@H](OC)C(=O)[O-])c2sccc12.[Na+] [Na salt Form A], which “Area (%) of impurity peak RRT 0.89” value (40° C./75% RH, 2 weeks) is on record?
A: 0.04%

Q: And the “Area (%) of impurity peak RRT 1.14” value (40° C./75% RH, 2 weeks)?
A: 0.03%

Q: And the “Area (%) of impurity peak RRT 1.34” value (40° C./75% RH, 2 weeks)?
A: 0.23%

Q: What about the “Area (%) of impurity peak RRT 0.89” value (40° C./75% RH, 4 weeks) of the same molecule?
A: 0.07%

Q: And the “Area (%) of impurity peak RRT 1.34” value (40° C./75% RH, 4 weeks)?
A: 0.23%

Q: What about the “Area (%) of impurity peak RRT 0.89” value (40° C./75% RH, 8 weeks) of the same molecule?
A: 0.05%

Q: What about the “Area (%) of impurity peak RRT 1.34” value (40° C./75% RH, 8 weeks) of the same molecule?
A: 0.24%

Q: What about the “HPLC Purity (area %), main peak RRT 1.00” value (40° C./75% RH/open, 2 weeks) of the same molecule?
A: 99.71 area %

Q: And the “HPLC Reults of initial (%)” value (40° C./75% RH/open, 2 weeks)?
A: 100.03%

Q: What about the “HPLC Purity (area %), main peak RRT 1.00” value (40° C./75% RH/open, 4 weeks) of the same molecule?
A: 99.69 area %

Q: What about the “HPLC Reults of initial (%)” value (40° C./75% RH/open, 4 weeks) of the same molecule?
A: 100.02%

Q: And the “HPLC Purity (area %), main peak RRT 1.00” value (40° C./75% RH/open, 8 weeks)?
A: 99.71 area %

Q: What about the “HPLC Reults of initial (%)” value (40° C./75% RH/open, 8 weeks) of the same molecule?
A: 100.03%

Q: And the “Form or purity change after storage” value (60° C. for 8 weeks)?
A: Slightly purity decrease and form change

Q: What about the “Area (%) of impurity peak RRT 0.58” value (60° C., 2 weeks) of the same molecule?
A: 0.10%

Q: What about the “Area (%) of impurity peak RRT 0.79” value (60° C., 2 weeks) of the same molecule?
A: 0.07%

Q: What about the “Area (%) of impurity peak RRT 0.81” value (60° C., 2 weeks) of the same molecule?
A: 0.10%

Q: And the “Area (%) of impurity peak RRT 0.89” value (60° C., 2 weeks)?
A: 0.08%

Q: And the “Area (%) of impurity peak RRT 0.91” value (60° C., 2 weeks)?
A: 0.05%

Q: What about the “Area (%) of impurity peak RRT 1.14” value (60° C., 2 weeks) of the same molecule?
A: 0.05%

Q: What about the “Area (%) of impurity peak RRT 1.34” value (60° C., 2 weeks) of the same molecule?
A: 0.22%

Q: And the “Area (%) of impurity peak RRT 0.29” value (60° C., 4 weeks)?
A: 0.07%

Q: And the “Area (%) of impurity peak RRT 0.58” value (60° C., 4 weeks)?
A: 0.16%

Q: And the “Area (%) of impurity peak RRT 0.63” value (60° C., 4 weeks)?
A: 0.05%

Q: What about the “Area (%) of impurity peak RRT 0.79” value (60° C., 4 weeks) of the same molecule?
A: 0.13%

Q: And the “Area (%) of impurity peak RRT 0.81” value (60° C., 4 weeks)?
A: 0.20%

Q: And the “Area (%) of impurity peak RRT 0.86” value (60° C., 4 weeks)?
A: 0.06%

Q: And the “Area (%) of impurity peak RRT 0.89” value (60° C., 4 weeks)?
A: 0.08%

Q: What about the “Area (%) of impurity peak RRT 0.91” value (60° C., 4 weeks) of the same molecule?
A: 0.10%

Q: And the “Area (%) of impurity peak RRT 0.95” value (60° C., 4 weeks)?
A: 0.05%

Q: And the “Area (%) of impurity peak RRT 1.34” value (60° C., 4 weeks)?
A: 0.20%

Q: And the “Area (%) of impurity peak RRT 0.29” value (60° C., 8 weeks)?
A: 0.11%

Q: What about the “Area (%) of impurity peak RRT 0.58” value (60° C., 8 weeks) of the same molecule?
A: 0.25%

Q: What about the “Area (%) of impurity peak RRT 0.63” value (60° C., 8 weeks) of the same molecule?
A: 0.12%

Q: And the “Area (%) of impurity peak RRT 0.79” value (60° C., 8 weeks)?
A: 0.19%

Q: What about the “Area (%) of impurity peak RRT 0.81” value (60° C., 8 weeks) of the same molecule?
A: 0.35%

Q: What about the “Area (%) of impurity peak RRT 0.86” value (60° C., 8 weeks) of the same molecule?
A: 0.06%

Q: What about the “Area (%) of impurity peak RRT 0.91” value (60° C., 8 weeks) of the same molecule?
A: 0.21%

Q: And the “Area (%) of impurity peak RRT 0.95” value (60° C., 8 weeks)?
A: 0.09%

Q: What about the “Area (%) of impurity peak RRT 1.34” value (60° C., 8 weeks) of the same molecule?
A: 0.20%

Q: What about the “HPLC Purity (area %), main peak RRT 1.00” value (60° C./close, 2 weeks) of the same molecule?
A: 99.33 area %

Q: And the “HPLC Reults of initial (%)” value (60° C./close, 2 weeks)?
A: 99.65%

Q: And the “HPLC Purity (area %), main peak RRT 1.00” value (60° C./close, 4 weeks)?
A: 98.91 area %

Q: And the “HPLC Reults of initial (%)” value (60° C./close, 4 weeks)?
A: 99.23%

Q: What about the “HPLC Purity (area %), main peak RRT 1.00” value (60° C./close, 8 weeks) of the same molecule?
A: 98.43 area %

Q: What about the “HPLC Reults of initial (%)” value (60° C./close, 8 weeks) of the same molecule?
A: 98.75%

Q: What about the “Area (%) of impurity peak RRT 0.89” value (Initial) of the same molecule?
A: 0.05%

Q: What about the “Area (%) of impurity peak RRT 1.14” value (Initial) of the same molecule?
A: 0.05%

Q: And the “Area (%) of impurity peak RRT 1.34” value (Initial)?
A: 0.22%

Q: And the “HPLC Purity (area %), main peak RRT 1.00” value (Initial)?
A: 99.68 area %

Q: What about the Form (XRPD after 40° C./75% RH/open, 2/4/8 weeks) of the same molecule?
A: New form

Q: What about the “Water uptake up to 80% RH” value [1] of the same molecule?
A: 5.5%

Q: And the “Form change after DVS test” value [1]?
A: form change was observed
